From PMC6100056, “Antitumor Effects and Delivery Profiles of Menahydroquinone-4 Prodrugs with Ionic or Nonionic Promoiety to Hepatocellular Carcinoma Cells” (Molecules : A Journal of Synthetic Chemistry and Natural …, 2018)
Structures can show the parent of a compound that is named as a salt.

Tests used:
[1] = design: method as in PMID 21574174; settings: clinical dose (45 mg/day) or double dose (90 mg/day); trial in Japan; cited from earlier work
SK-Hep-1 cells [2] = test: MKH delivery into HCC cells: intracellular MKO and MK-4 concentration-time profiles; type: in vitro ADME; settings: dose 25 μM, trapezoidal rule
Excerpt: (§1) When assessing the delivery of MKH into HCC cells by MKH-ester prodrugs, although the MKH levels in HCC cells should be quantified, it is difficult to determine an accurate MKH level owing to its rapidly oxidative characteristics to MK-4. Concomitant with γ-carboxylation in producing of vitamin K-dependent proteins, MKH is stoichiometrically converted to MK-4 epoxide (MKO), as shown in Figure 1. Thus, MKO levels in HCC cells can reflect the levels of MKH. In addition, the intracellular MK-4 in HCC cells after MKH-DMG treatment is the oxidative product of MKH, which is generated by hydrolysis of MKH-DMG [22]. The estimation rules of MKH in an earlier report were adopted in this study, in which the sum of MKO and MK-4 levels after MKH-ester prodrug treatment was regarded as the MKH level delivered into HCC cells. In MK-4 treatment, the MKH level was assessed by determining the level of MKO.
(§2) MKH delivery into HCC cells with 25 μM MKH-ester derivatives was determined after 1, 3, 6, 12 or 24 h of incubation. […] The AUC0–24h values for MKO (AUCMKO), MK-4 (AUCMK-4) and MKH (AUCMKH) were calculated using the trapezoidal rule (Table 3). […]
(§3) HCC cells were plated at 1.5 × 10^5 cells/well in 6-well plates and allowed to attach for 48 h. […] The protein concentration of the cell homogenate was determined using a BCA protein assay kit. […]

PLC/PRF/5 cells [3] = test: as above; type: in vitro ADME; settings: dose 25 μM, trapezoidal rule
Excerpt: as §1, §2, §3

[4] = tested on: cyclin D1 and CDK4 in PLC/PRF/5 cells; test: Western blotting of cell cycle regulatory proteins; type: cell-based; settings: 24 h after treatment
Method: We previously reported that MKH-DMG regulates cell cycle-related proteins as a mechanism of MKH-DMG-induced growth inhibition in PLC/PRF/5, Hep3B and SK-Hep-1 cells. Thus, to clarify the mechanisms of the growth inhibition induced by the MKH-ester prodrugs, we analyzed cell cycle-related proteins using Western blotting (Figure 7).
HCC cells were plated at 1.5 × 10^5 cells/well in 6-well plates and allowed to attach for 48 h. Cells were treated with MK-4, MKH-ACT, MKH-DMG or MKH-SUC for 24 h. Western blotting was performed as described previously.

SK-Hep-1 cells [5] = test: Cell viability assay (Cell Titer-Glo); type: cell-based; settings: for IC50: Homo sapiens, 95% confidence interval in square brackets
Method: (§4) To assess the effects of MKH-ester prodrugs on HCC cell proliferation, DCP-positive (PLC/PRF/5) and DCP-negative (SK-Hep-1) HCC cell lines were treated with various concentrations of MKH-ACT, MKH-DMG, MKH-SUC or MK-4 up to 96 h, and cell viability was determined.
(§5) Cell viability was determined using a previously reported method. Briefly, PLC/PRF/5 and SK-Hep-1 cells were plated at 5.0 × 10^3 cells/well in 96-well plates and allowed to attach for 48 h. MK-4 and MKH-ACT were dissolved in 99.5% ethanol. MKH-SUC was dissolved in DMSO. MKH-DMG was dissolved in sterilized water. Stock solutions of each drug (50 mM) were diluted to the intended final concentrations with medium. Cells were exposed to MK-4, MKH-ACT, MKH-DMG or MKH-SUC for up to 96 h, and cell viability was evaluated using the Cell Titer-Glo Luminescent Cell Viability Assay (Promega, Madison, WI, USA) according to the manufacturer’s instructions. IC50 values were determined by a log [drug] vs. normalized response-variable slope analysis of GraphPad Prism, version 6.0 (GraphPad Software, San Diego, CA, USA).

PLC/PRF/5 cells [6] = test: Cell viability assay (Cell Titer-Glo); type: cell-based; settings: for IC50: Homo sapiens, 95% confidence interval in square brackets
Method: as §4, §5

melting point [°C]	AUC0–24h for MK-4 (SK-Hep-1 cells [2]) [nmol·h·mg Protein^−1]	AUC0–24h for MK-4 (PLC/PRF/5 cells [3]) [nmol·h·mg Protein^−1]	IC50 (SK-Hep-1 cells [5]; SK-HEP1, 72 h) [µM]	IC50 (SK-Hep-1 cells [5]; SK-HEP1, 96 h) [µM]	SMILES	Effect on cumulative recurrence of HCC [1]	Effect on cyclin D1 and CDK4 expression compared with controls [4]	Inhibition of cell viability of the control (SK-Hep-1 cells [5]; 60 μM, 72 h)	Inhibition of cell viability of the control (SK-Hep-1 cells [5]; 60 μM, 96 h) [%]	Inhibition of cell viability of the control (SK-Hep-1 cells [5]; 20–40 μM, 96 h) [%]	Inhibition of cell viability of the control (PLC/PRF/5 cells [6]; 40–60 μM, 96 h)	IC50 (PLC/PRF/5 cells [6]; 72 h) [µM]	IC50 (PLC/PRF/5 cells [6]; 96 h) [µM]
179 to 181					CC(C)=CCC/C(C)=C/CC/C(C)=C/CC/C(C)=C/Cc1c(C)c(OC(=O)CCC(=O)O)c2ccccc2c1OC(=O)CCC(=O)O (as salt: succinate) [MKH-SUC, Menahydroquinone-4 1,4-bis hemisuccinate]								
	41.6 ± 9.04	12.2 ± 4.19	80.2	88.2	CC(C)=CCC/C(C)=C/CC/C(C)=C/CC/C(C)=C/CC1=C(C)C(=O)c2ccccc2C1=O [MK-4, menaquinone-4, reference compound]	did not find any statistically significant improvement	did not affect	about 20%	40	20	30–40%	188	86.8
